Molecular target: JNK3 (Homo sapiens, UniProt P53779)
Experiment: Measurement of JNK3 enzyme activity
Format: biochemical
From the text: Experimental Example 1. Measurement of JNK3 Enzyme Activity

JNK3, sequence (P53779 whole entry, species assumed): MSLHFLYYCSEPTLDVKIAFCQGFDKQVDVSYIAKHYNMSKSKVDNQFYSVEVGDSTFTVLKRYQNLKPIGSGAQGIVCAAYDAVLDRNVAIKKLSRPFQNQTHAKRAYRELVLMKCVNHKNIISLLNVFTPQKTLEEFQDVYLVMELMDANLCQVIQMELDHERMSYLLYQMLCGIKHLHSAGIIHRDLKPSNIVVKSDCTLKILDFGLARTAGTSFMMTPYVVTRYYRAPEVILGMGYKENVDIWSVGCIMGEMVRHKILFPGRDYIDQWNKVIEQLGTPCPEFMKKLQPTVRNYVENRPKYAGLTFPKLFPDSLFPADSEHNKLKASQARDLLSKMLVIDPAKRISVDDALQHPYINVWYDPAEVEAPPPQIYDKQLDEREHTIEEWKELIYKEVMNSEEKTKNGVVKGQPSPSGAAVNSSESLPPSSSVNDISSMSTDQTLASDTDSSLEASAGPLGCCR

Compound `CCOC(=O)C1Cc2nc(-c3ccc(F)c(C(F)(F)F)c3)n(-c3ccnc(N[C@@H]4CCCN(C(=O)C5CC5)C4)n3)c2C1` (stereo partly drawn) [Compound 19a, ethyl 1-(2-(((R)-1-(cyclopropanecarbonyl)piperidin-3-yl)amino)pyrimidin-4-yl)-2-(4-fluoro-3-(trifluoromethyl)phenyl)-1,4,5,6-tetracyclopenta[d]imidazol-5-carboxylate] has an IC50 (Table 1) of under 0.03 µM.
`CCOC(=O)C1Cc2nc(-c3ccc(Cl)c(Cl)c3)n(-c3ccnc(N[C@H]4CCCN(C(=O)C5CC5)C4)n3)c2C1` (stereo partly drawn) [Compound 18b, ethyl 1-(2-(((S)-1-(cyclopropanecarbonyl)piperidin-3-yl)amino)pyrimidin-4-yl)-2-(3,4-dichlorophenyl)-1,4,5,6-tetracyclopenta[d]imidazol-5-carboxylate] showed an IC50 (Table 2) of under 0.03 µM.
With `CCOC(=O)C1Cc2nc(-c3ccc4c(c3)CCO4)n(-c3ccnc(N[C@H]4CCCN(C(=O)C5CC5)C4)n3)c2C1` (stereo partly drawn) [Compound 18e, ethyl 1-(2-(((S)-1-(cyclopropanecarbonyl)piperidin-3-yl)amino)pyrimidin-4-yl)-2-(2,3-dihydrobenzofuran-5-yl)-1,4,5,6-tetracyclopenta[d]imidazol-5-carboxylate] the IC50 (Table 5) was under 0.03 µM.
In the case of `CCOC(=O)C1Cc2nc(-c3ccc4c(c3)OCO4)n(-c3ccnc(N[C@H]4CCN(C(=O)C5CC5)C4)n3)c2C1` (stereo partly drawn) [Compound 16d, ethyl 2-(benzo[d][1,3]dioxol-5-yl)-1-(2-(((S)-1-(cyclopropanecarbonyl)pyrrolidine-3-yl)amino)pyrimidin-4-yl)-1,4,5,6-tetracyclopenta[d]imidazol-5-carboxylate], the IC50 (Table 4) is reported as over 1 µM.
`CNC(=O)C1Cc2nc(-c3ccc(F)c(-c4ccc5ccccc5c4)c3)n(-c3ccnc(N[C@@H]4CCCN(C(=O)C5CC5)C4)n3)c2C1` (some centres unmarked) [Compound 27c] was tested, and the IC50 (Table 3) was under 0.03 µM.
`CNC(=O)C1Cc2nc(-c3ccc(F)c(C(F)(F)F)c3)n(-c3ccnc(N[C@H]4CCN(C(=O)C5CC5)C4)n3)c2C1` (stereo partly drawn) [Compound 24a, 1-(2-(((S)-1-(cyclopropanecarbonyl)pyrrolidine-3-yl)amino)pyrimidin-4-yl)-2-(4-fluoro-3-(trifluoromethyl)phenyl)-N-methyl-1,4,5,6-tetracyclopenta[d]imidazol-5-carboxamide] gave an IC50 (Table 1) of over 1 µM.
`CCOC(=O)C1Cc2nc(-c3ccc(Cl)c(Cl)c3)n(-c3ccnc(N[C@@H]4CCCN(C(=O)C5CC5)C4)n3)c2C1` (stereo partly drawn) [Compound 19b, ethyl 1-(2-(((R)-1-(cyclopropanecarbonyl)piperidin-3-yl)amino)pyrimidin-4-yl)-2-(3,4-dichlorophenyl)-1,4,5,6-tetracyclopenta[d]imidazol-5-carboxylate] was tested, and the IC50 (Table 2) was under 0.03 µM.
With `CCOC(=O)C1Cc2nc(-c3ccc(F)c(C(F)(F)F)c3)n(-c3ccnc(N[C@@H]4CCN(C(=O)C5CC5)C4)n3)c2C1` (stereo partly drawn) [Compound 17a, ethyl 1-(2-(((R)-1-(cyclopropanecarbonyl)pyrrolidine-3-yl)amino)pyrimidin-4-yl)-2-(4-fluoro-3-(trifluoromethyl)phenyl)-1,4,5,6-tetracyclopenta[d]imidazol-5-carboxylate] the IC50 (Table 1) was under 0.03 µM.
Compound `CNC(=O)C1Cc2nc(-c3ccc4c(c3)OCO4)n(-c3ccnc(N[C@@H]4CCN(C(=O)C5CC5)C4)n3)c2C1` (some centres unmarked) [Compound 25d] has an IC50 (Table 4) of under 0.03 µM.
For `NC(=O)C1Cc2nc(-c3ccc(F)c(C(F)(F)F)c3)n(-c3ccnc(NC4CCCN(C(=O)C5CC5)C4)n3)c2C1` (single isomer, unassigned) [Compound 22a], the IC50 (Table 1) was under 0.03 µM.
Work on `CCOC(=O)C1Cc2nc(-c3ccc4c(c3)CCO4)n(-c3ccnc(N[C@@H]4CCN(C(=O)C5CC5)C4)n3)c2C1` (stereo partly drawn) [Compound 17e, ethyl 1-(2-(((R)-1-(cyclopropanecarbonyl)pyrrolidine-3-yl)amino)pyrimidin-4-yl)-2-(2,3-dihydrobenzofuran-5-yl)-1,4,5,6-tetracyclopenta[d]imidazol-5-carboxylate] yielded an IC50 (Table 5) of under 0.03 µM.
In the case of `CCOC(=O)C1Cc2nc(-c3ccc4c(c3)OCO4)n(-c3ccnc(N[C@@H]4CCN(C(=O)C5CC5)C4)n3)c2C1` (stereo partly drawn) [Compound 17d, ethyl 2-(benzo[d][1,3]dioxol-5-yl)-1-(2-(((R)-1-(cyclopropanecarbonyl)pyrrolidine-3-yl)amino)pyrimidin-4-yl)-1,4,5,6-tetracyclopenta[d]imidazol-5-carboxylate], the IC50 (Table 4) is reported as under 0.03 µM.
Work on `NC(=O)C1Cc2nc(-c3ccc4ccccc4c3)n(-c3ccnc(N[C@H]4CCCN(C(=O)C5CC5)C4)n3)c2C1` (stereo partly drawn) [Compound 22c, 1-(2-(((S)-1-(cyclopropanecarbonyl)piperidin-3-yl)amino)pyrimidin-4-yl)-2-(naphthalen-2-yl)-1,4,5,6-tetracyclopenta[d]imidazol-5-carboxamide] yielded an IC50 (Table 3) of under 0.03 µM.
`NC(=O)C1Cc2nc(-c3ccc4c(c3)CCO4)n(-c3ccnc(N[C@H]4CCN(C(=O)C5CC5)C4)n3)c2C1` (stereo partly drawn) [Compound 20e, 1-(2-(((S)-1-(cyclopropanecarbonyl)pyrrolidine-3-yl)amino)pyrimidin-4-yl)-2-(2,3-dihydrobenzofuran-5-yl)-1,4,5,6-tetracyclopenta[d]imidazol-5-carboxamide] showed an IC50 (Table 5) of under 0.03 µM.
`NC(=O)C1Cc2nc(-c3ccc4ccccc4c3)n(-c3ccnc(N[C@@H]4CCN(C(=O)C5CC5)C4)n3)c2C1` (stereo partly drawn) [Compound 21c, 1-(2-(((R)-1-(cyclopropanecarbonyl)pyrrolidine-3-yl)amino)pyrimidin-4-yl)-2-(naphthalen-2-yl)-1,4,5,6-tetracyclopenta[d]imidazol-5-carboxamide] was tested, and the IC50 (Table 3) was under 0.03 µM.
`NC(=O)C1Cc2nc(-c3ccc4c(c3)CCO4)n(-c3ccnc(N[C@H]4CCCN(C(=O)C5CC5)C4)n3)c2C1` (stereo partly drawn) [Compound 22e, 1-(2-(((S)-1-(cyclopropanecarbonyl)piperidin-3-yl)amino)pyrimidin-4-yl)-2-(2,3-dihydrobenzofuran-5-yl)-1,4,5,6-tetracyclopenta[d]imidazol-5-carboxamide] gave an IC50 (Table 5) of under 0.03 µM.
`NC(=O)C1Cc2nc(-c3ccc4c(c3)OCO4)n(-c3ccnc(N[C@H]4CCCN(C(=O)C5CC5)C4)n3)c2C1` (stereo partly drawn) [Compound 22d, 2-(benzo[d][1,3]dioxol-5-yl)-1-(2-(((S)-1-(cyclopropanecarbonyl)piperidin-3-yl)amino)pyrimidin-4-yl)-1,4,5,6-tetracyclopenta[d]imidazol-5-carboxamide] was tested, and the IC50 (Table 4) was under 0.03 µM.
Work on `CCOC(=O)C1Cc2nc(-c3ccc4c(c3)OCO4)n(-c3ccnc(N[C@@H]4CCCN(C(=O)C5CC5)C4)n3)c2C1` (stereo partly drawn) [Compound 19d, ethyl 2-(benzo[d][1,3]dioxol-5-yl)-1-(2-(((R)-1-(cyclopropanecarbonyl)piperidin-3-yl)amino)pyrimidin-4-yl)-1,4,5,6-tetracyclopenta[d]imidazol-5-carboxylate] yielded an IC50 (Table 4) of under 0.03 µM.
Compound `CCOC(=O)C1Cc2nc(-c3ccc(Cl)c(Cl)c3)n(-c3ccnc(N[C@H]4CCN(C(=O)C5CC5)C4)n3)c2C1` (stereo partly drawn) [Compound 16b, ethyl 1-(2-(((S)-1-(cyclopropanecarbonyl)pyrrolidine-3-yl)amino)pyrimidin-4-yl)-2-(3,4-dichlorophenyl)-1,4,5,6-tetracyclopenta[d]imidazol-5-carboxylate] has an IC50 (Table 2) of under 0.03 µM.
`CNC(=O)C1Cc2nc(-c3ccc(F)c(C(F)(F)F)c3)n(-c3ccnc(NC4CCCN(C(=O)C5CC5)C4)n3)c2C1` (single isomer, unassigned) [Compound 26a] gave an IC50 (Table 1) of under 0.03 µM.

Reference: US20240299386A1, “Novel imidazole derivatives having protein kinase inhibitory activity and uses thereof” (INDUSTRY-UNIVERSITY COOPERATION FOUNDATION HANYANG …, priority 2021, published 2024)
